How the values were obtained:
[1] = target: Indoleamine 2,3-dioxygenase 1 (Homo sapiens, UniProt P14902); assay: Inhibition of human N-terminal His-tagged IDO1 expressed in Escherichia coli assessed as formation of N'-formyl-kynurenine using D-tryptophan as a substrate by methylene blue based assay
HCT-116 = assay: Cytotoxicity against human HCT-116 cells assessed as reduction in cell viability measured after 72 hrs by MTT assay; format: cell-based; conditions: HCT-116, 72 h
HGC-27 = assay: Cytotoxicity against human HGC-27 cells assessed as reduction in cell viability measured after 72 hrs by MTT assay; format: cell-based; conditions: HGC-27, 72 h
U-87 MG = assay: Cytotoxicity against human U87 cells assessed as reduction in cell viability measured after 72 hrs by MTT assay; format: cell-based, U-87MG ATCC
HepG2 = assay: Cytotoxicity against human HepG2 cells assessed as reduction in cell viability measured after 72 hrs by MTT assay; format: cell-based; conditions: HepG2, 72 h
MCF7 = assay: Cytotoxicity against human MCF7 cells assessed as reduction in cell viability measured after 72 hrs by MTT assay; format: cell-based; conditions: MCF7, 72 h
[2] = target: Tryptophan 2,3-dioxygenase (Homo sapiens) (UniProt P48775); assay: Inhibition of human N-terminal His-tagged TDO expressed in Escherichia coli assessed as formation of N'-formyl-kynurenine at 1 uM using D-tryptophan as a substrate by methylene blue based assay relative to control
Sequence of Tryptophan 2,3-dioxygenase (Homo sapiens) (P48775 whole entry, looked up): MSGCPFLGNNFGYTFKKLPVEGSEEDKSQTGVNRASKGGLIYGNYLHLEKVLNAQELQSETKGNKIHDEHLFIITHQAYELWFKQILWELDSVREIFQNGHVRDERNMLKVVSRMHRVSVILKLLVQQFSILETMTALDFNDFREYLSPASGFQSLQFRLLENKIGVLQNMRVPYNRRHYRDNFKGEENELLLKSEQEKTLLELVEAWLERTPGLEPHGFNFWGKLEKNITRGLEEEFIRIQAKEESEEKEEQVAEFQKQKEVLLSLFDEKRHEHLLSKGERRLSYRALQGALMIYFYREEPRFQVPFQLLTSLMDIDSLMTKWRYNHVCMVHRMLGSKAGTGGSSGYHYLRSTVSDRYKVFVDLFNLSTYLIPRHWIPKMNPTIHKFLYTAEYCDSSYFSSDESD

Sequence of Indoleamine 2,3-dioxygenase 1 (P14902 whole entry): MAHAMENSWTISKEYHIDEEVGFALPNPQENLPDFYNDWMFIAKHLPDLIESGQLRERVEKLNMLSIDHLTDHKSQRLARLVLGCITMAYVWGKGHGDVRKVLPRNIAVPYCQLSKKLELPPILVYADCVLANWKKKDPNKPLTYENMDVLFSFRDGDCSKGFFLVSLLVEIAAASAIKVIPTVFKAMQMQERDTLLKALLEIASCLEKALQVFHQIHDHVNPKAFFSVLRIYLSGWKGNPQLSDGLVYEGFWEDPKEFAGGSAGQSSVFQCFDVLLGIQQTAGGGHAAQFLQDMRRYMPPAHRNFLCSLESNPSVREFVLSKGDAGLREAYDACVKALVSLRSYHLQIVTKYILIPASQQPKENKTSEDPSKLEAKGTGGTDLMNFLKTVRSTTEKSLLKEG

## COc1ccc(C)c2c1CC1(C(=O)N(C)C(=O)N1C)C1=C2C(=O)c2[nH]cc(CCNC(=O)Cc3cccc(C(F)(F)F)c3)c2C1=O (stereo not given)
[1]
  IC50: 0.441 µM

## COc1ccc(C)c2c1CC1(C(=O)N(C)C(=O)N1C)C1=C2C(=O)c2[nH]cc(CCNCc3ccc(C(C)(C)C)cc3)c2C1=O (stereo not given)
[1]
  IC50: 0.265 µM

## COc1ccc(C)c2c1CC1(C(=O)N(C)C(=O)N1C)C1=C2C(=O)c2[nH]cc(CCNC(=O)c3cc4ccccc4s3)c2C1=O (stereo not given)
[1]
  IC50: > 42 µM

## COc1ccc(C)c2c1CC1(C(=O)N(C)C(=O)N1C)C1=C2C(=O)c2[nH]cc(CCNCc3cc4ccccc4s3)c2C1=O (stereo not given)
[1]
  IC50: 0.621 µM

## NS(=O)(=O)NCCNc1nonc1/C(=N/O)Nc1ccc(F)c(Br)c1 [EPACADOSTAT]
HCT-116
  IC50: > 50 µM
HGC-27
  IC50: > 50 µM
U-87 MG
  IC50: > 50 µM
HepG2
  IC50: > 50 µM
MCF7
  IC50: > 50 µM

## COc1ccc(C)c2c1CC1(C(=O)N(C)C(=O)N1C)C1=C2C(=O)c2[nH]cc(CCN(C)C)c2C1=O (stereo not given)
[2]
  inhibition: 0%
HCT-116
  IC50: > 50 µM
[1]
  IC50: 0.101 µM
HGC-27
  IC50: > 50 µM
U-87 MG
  IC50: > 50 µM
HepG2
  IC50: > 50 µM
MCF7
  IC50: > 50 µM

## COc1ccc(C)c2c1CC1(C(=O)N(C)C(=O)N1C)C1=C2C(=O)c2[nH]cc(CCNC(=O)/C=C/c3cccc(C(F)(F)F)c3)c2C1=O (stereo not given)
[1]
  IC50: > 42 µM

## COc1ccc(C)c2c1CC1(C(=O)N(C)C(=O)N1C)C1=C2C(=O)c2[nH]cc(CCNCc3ccccc3)c2C1=O (stereo not given)
[1]
  IC50: 0.173 µM

## COc1ccc(C)c2c1CC1(C(=O)N(C)C(=O)N1C)C1=C2C(=O)c2[nH]cc(CCNC(=O)c3ccc(C(C)C)cc3)c2C1=O (stereo not given)
[1]
  IC50: > 42 µM

## COc1ccc(C)c2c1CC1(C(=O)N(C)C(=O)N1C)C1=C2C(=O)c2[nH]cc(CCNC(=O)c3cccs3)c2C1=O (stereo not given)
[1]
  IC50: 0.221 µM

## COc1ccc(C)c2c1CC1(C(=O)N(C)C(=O)N1C)C1=C2C(=O)c2[nH]cc(CCNCc3cc(OC)c(OC)c(OC)c3)c2C1=O (stereo not given)
[1]
  IC50: 0.181 µM

## COc1ccc(C(=O)NCCc2c[nH]c3c2C(=O)C2=C(C3=O)c3c(C)ccc(OC)c3CC23C(=O)N(C)C(=O)N3C)cc1 (stereo not given)
[1]
  IC50: 2.5 µM

## COc1ccc(C)c2c1CC1(C(=O)N(C)C(=O)N1C)C1=C2C(=O)c2[nH]cc(CCNCc3ccc4ccccc4c3)c2C1=O (stereo not given)
[1]
  IC50: 0.271 µM

## COc1ccc(C)c2c1CC1(C(=O)N(C)C(=O)N1C)C1=C2C(=O)c2[nH]cc(CCNC(=O)OC(C)(C)C)c2C1=O (stereo not given)
[1]
  IC50: 0.467 µM

## COc1ccc(C)c2c1CC1(C(=O)N(C)C(=O)N1C)C1=C2C(=O)c2[nH]cc(CCNCCc3ccccc3)c2C1=O (stereo not given)
[1]
  IC50: 0.159 µM

## COc1ccc(C)c2c1CC1(C(=O)N(C)C(=O)N1C)C1=C2C(=O)c2[nH]cc(CCNC(=O)c3cc4ccccc4[nH]3)c2C1=O (stereo not given)
[1]
  IC50: > 42 µM

## COc1ccc(C)c2c1CC1(C(=O)N(C)C(=O)N1C)C1=C2C(=O)c2[nH]cc(CCNC(=O)/C=C/c3ccccc3)c2C1=O (stereo not given)
[1]
  IC50: 0.578 µM

## COc1ccc(C)c2c1CC1(C(=O)N(C)C(=O)N1C)C1=C2C(=O)c2[nH]cc(CCNCc3ccccc3Br)c2C1=O (stereo not given)
[2]
  inhibition: 0%
HCT-116
  IC50: 1.35 µM
[1]
  IC50: 0.0653 µM
HGC-27
  IC50: 2.08 µM
U-87 MG
  IC50: 1.22 µM
HepG2
  IC50: 1.56 µM
MCF7
  IC50: 1.52 µM

## COc1ccc(C)c2c1CC1(C(=O)N(C)C(=O)N1C)C1=C2C(=O)c2[nH]cc(CCNCc3ccc(-c4ccccc4)cc3)c2C1=O (stereo not given)
[1]
  IC50: 0.954 µM

## COc1ccc(C)c2c1CC1(C(=O)N(C)C(=O)N1C)C1=C2C(=O)c2[nH]cc(CCNC(=O)c3ccc4ccccc4c3)c2C1=O (stereo not given)
[1]
  IC50: > 42 µM

## COc1ccc(C)c2c1CC1(C(=O)N(C)C(=O)N1C)C1=C2C(=O)c2[nH]cc(CCNCc3cc(F)cc(F)c3)c2C1=O (stereo not given)
[1]
  IC50: 0.213 µM

## COc1ccc(C)c2c1CC1(C(=O)N(C)C(=O)N1C)C1=C2C(=O)c2[nH]cc(CCNCC(C)(C)C)c2C1=O (stereo not given)
[2]
  inhibition: 0%
HCT-116
  IC50: > 50 µM
[1]
  IC50: 0.0793 µM
HGC-27
  IC50: > 50 µM
U-87 MG
  IC50: > 50 µM
HepG2
  IC50: > 50 µM
MCF7
  IC50: > 50 µM

## COc1ccc(C)c2c1CC1(C(=O)N(C)C(=O)N1C)C1=C2C(=O)c2[nH]cc(CCNCc3ccccc3C)c2C1=O (stereo not given)
[1]
  IC50: 0.242 µM

## COc1ccc(C)c2c1CC1(C(=O)N(C)C(=O)N1C)C1=C2C(=O)c2[nH]cc(CCNC(=O)c3ccco3)c2C1=O (stereo not given)
[2]
  inhibition: 0%
HCT-116
  IC50: 2.15 µM
[1]
  IC50: 0.209 µM
HGC-27
  IC50: 3.16 µM
U-87 MG
  IC50: 2.59 µM
HepG2
  IC50: 4.18 µM
MCF7
  IC50: 6.91 µM

## COc1ccc(C)c2c1CC1(C(=O)N(C)C(=O)N1C)C1=C2C(=O)c2[nH]cc(CCNC(=O)c3ccccc3Br)c2C1=O (stereo not given)
[1]
  IC50: 0.25 µM

## COc1ccc(C)c2c1CC1(C(=O)N(C)C(=O)N1C)C1=C2C(=O)c2[nH]cc(CCNC(=O)c3ccccn3)c2C1=O (stereo not given)
[1]
  IC50: 0.43 µM

## COc1ccc(C)c2c1CC1(C(=O)N(C)C(=O)N1C)C1=C2C(=O)c2[nH]cc(CCNCc3ccc(C)c(C)c3)c2C1=O (stereo not given)
[1]
  IC50: 0.234 µM

## COc1ccc(CC(=O)NCCc2c[nH]c3c2C(=O)C2=C(C3=O)c3c(C)ccc(OC)c3CC23C(=O)N(C)C(=O)N3C)cc1 (stereo not given)
[1]
  IC50: 0.33 µM

## COc1ccc(C)c2c1CC1(C(=O)N(C)C(=O)N1C)C1=C2C(=O)c2[nH]cc(CCNC(=O)c3ccc(Cl)cc3)c2C1=O (stereo not given)
[1]
  IC50: > 42 µM

## COc1ccc(C)c2c1CC1(C(=O)N(C)C(=O)N1C)C1=C2C(=O)c2[nH]cc(CCNC(=O)c3cc4ccccc4o3)c2C1=O (stereo not given)
[1]
  IC50: 0.631 µM

## COc1ccc(C)c2c1CC1(C(=O)N(C)C(=O)N1C)C1=C2C(=O)c2[nH]cc(CCNCc3cccs3)c2C1=O (stereo not given)
[1]
  IC50: 0.37 µM

## COc1ccc(C)c2c1CC1(C(=O)N(C)C(=O)N1C)C1=C2C(=O)c2[nH]cc(CCNCc3ccc(C(F)(F)F)cc3)c2C1=O (stereo not given)
[1]
  IC50: 0.161 µM

## COc1ccc(C)c2c1CC1(C(=O)N(C)C(=O)N1C)C1=C2C(=O)c2[nH]cc(CCNCc3cccc(OC)c3OC)c2C1=O (stereo not given)
[1]
  IC50: 0.248 µM

## COC(=O)c1cccc(CNCCc2c[nH]c3c2C(=O)C2=C(C3=O)c3c(C)ccc(OC)c3CC23C(=O)N(C)C(=O)N3C)c1 (stereo not given)
[1]
  IC50: 0.252 µM

## COc1ccc(C)c2c1CC1(C(=O)N(C)C(=O)N1C)C1=C2C(=O)c2[nH]cc(CCNCc3cccc(Cl)c3)c2C1=O (stereo not given)
[2]
  inhibition: 0%
HCT-116
  IC50: > 50 µM
[1]
  IC50: 0.15 µM
HGC-27
  IC50: > 50 µM
U-87 MG
  IC50: > 50 µM
HepG2
  IC50: > 50 µM
MCF7
  IC50: > 50 µM

## COc1cc(/C=C/C(=O)NCCc2c[nH]c3c2C(=O)C2=C(C3=O)c3c(C)ccc(OC)c3CC23C(=O)N(C)C(=O)N3C)cc(OC)c1 (stereo not given)
[1]
  IC50: > 42 µM

## COc1ccc(C)c2c1CC1(C(=O)N(C)C(=O)N1C)C1=C2C(=O)c2[nH]cc(CCNC(=O)c3ccccc3)c2C1=O (stereo not given)
[2]
  inhibition: 0%
HCT-116
  IC50: 1.7 µM
[1]
  IC50: 0.21 µM
HGC-27
  IC50: 4 µM
U-87 MG
  IC50: 2.74 µM
HepG2
  IC50: 3.53 µM
MCF7
  IC50: 5.35 µM

## COc1ccc(C)c2c1CC1(C(=O)N(C)C(=O)N1C)C1=C2C(=O)c2[nH]cc(CCNC(=O)c3ccc4ccccc4n3)c2C1=O (stereo not given)
[1]
  IC50: > 42 µM

## COc1ccc(C)c2c1CC1(C(=O)N(C)C(=O)N1C)C1=C2C(=O)c2[nH]cc(CCNC(=O)c3cc(OC)c(OC)c(OC)c3)c2C1=O (stereo not given)
[1]
  IC50: > 42 µM

## COc1ccc(C)c2c1CC1(C(=O)N(C)C(=O)N1C)C1=C2C(=O)c2[nH]cc(CCNC(=O)c3cccc(C(F)(F)F)c3)c2C1=O (stereo not given)
[1]
  IC50: > 42 µM

From ChEMBL document CHEMBL4831485, “Design, synthesis and biological evaluation of exiguamine A analogues as IDO1 inhibitors” (Eur J Med Chem, 2021)
